Data reported in US20220402900A1, “1,2,4-OXADIAZOL-5-ONE DERIVATIVES FOR THE TREATMENT OF CANCER” (Basilea Pharmaceutica International AG, priority 2019, published 2022).

Assays:
[1] = target: T1, human TEAD2 (amino acids 217-447) (Homo sapiens, UniProt Q15562); experiment: Thermal shift assay (TSA); assay type: binding; details: 3 μM recombinant TEAD2, compound 7 μM, shift vs DMSO control
T1 construct: human TEAD2 (amino acids 217-447); His-tag (N); purchased Proteros biostructures PR-0365; host or cells: E. coli
T1 sequence (Q15562 217-447): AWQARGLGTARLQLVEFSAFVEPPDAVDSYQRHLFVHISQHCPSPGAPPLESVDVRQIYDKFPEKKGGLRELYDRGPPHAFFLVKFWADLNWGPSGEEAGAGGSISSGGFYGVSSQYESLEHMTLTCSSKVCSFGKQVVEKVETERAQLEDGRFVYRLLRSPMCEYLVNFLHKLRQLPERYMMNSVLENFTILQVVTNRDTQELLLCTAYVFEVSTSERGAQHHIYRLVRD
Protocol: The thermal shift assay (TSA) was utilized to characterize target engagement in vitro based on ligand-dependent thermal stabilization of the protein. N-terminally His-tagged human TEAD2 (amino acids 217-447) expressed and purified from E. coli was purchased from Proteros biostructures (cat no. PR-0365). The melting reactions were performed in white, 96 well qPCR plates (Roche Diagnostics, cat. no. 04 729 692 001) in 20 mM HEPES pH 7, 100 mM NaCl in the presence of 4×SYPRO orange (Sigma, cat. no. S5692). Each well contained 3 μM recombinant TEAD2 and either DMSO (control) or experimental compounds at a final concentration of 7 μM. The total volume was 20 μL and the final DMSO concentration was 1%. The plate was sealed and analyzed in a LightCycler 480 II (Roche Diagnostics) by continuously reading the fluorescence using the 465-580 nm filter set while heating from 25° C. to 95° C. using a linear gradient of 1° C./min. Melting temperatures were determined by numerical differentiation using the LightCycler Thermal Shift Analysis software (Roche Diagnostics). The shifts in melting temperature caused by experimental compounds compared to the control are expressed as ΔTm (Table 2).

[2] = tested on: TEAD reporter gene activity; experiment: TEAD reporter gene assay (MCF7 TEAD reporter cell line); assay type: cell-based; details: Homo sapiens; TEAD luciferase reporter in MCF7 cells, 24 hours; read-out: IC50 TEAD RGA (converted)
Excerpt: A TEAD reporter cell line was purchased from BPS Bioscience (cat. no. 60618). It contains the firefly luciferase gene under control of TEAD responsive elements stably integrated into the human breast cancer MCF7 cells. In proliferating cells, a basal level of unphosphorylated YAP/TAZ resides in the nucleus and drives the TEAD-dependent expression of the luciferase reporter. The cells were cultivated as recommended by the supplier. Inhibition of TEAD reporter gene activity by experimental compounds was measured using white, clear-bottom, 96 well cell culture plates (Greiner Bio-One, cat. no. 655098). The cells were seeded at a density of 20,000 cells per well in 100 μL growth medium and the plates were incubated overnight at 37° C. with 5% CO2 prior to treatment. Experimental compounds were serially diluted in DMSO to 200× the desired final concentrations. 0.5 μL aliquots of DMSO or the test samples were then mixed into the wells and the cells were further incubated for 24 hours. Luminescence was then measured on a Synergy 4 reader (BioTek) using the ONE-Glo Luciferase Assay System (Promega, cat. no. E6120) according to the manufacturer's instructions. Relative inhibition values were calculated by normalizing the raw data using DMSO-treated cells (0% inhibition) and wells devoid of cells (100% inhibition). IC50 values were calculated by fitting concentration-response data to a sigmoidal 4-parameter logistic model.

## O=c1[nH]c(-c2nccnc2Nc2cnc(C(F)(F)F)nc2)no1 [Example 23, 3-[3-[[2-(trifluoromethyl)pyrimidin-5-yl]amino]pyrazin-2-yl]-4H-1,2,4-oxadiazol-5-one]
[1]
  ΔTm at 7 µM: 1.6 °C
[2]
  IC50: 64 nM

## O=c1[nH]c(-c2nc(CO)cnc2Nc2ccc(C(F)(F)F)cc2)no1 [Example 6, 3-[6-(hydroxymethyl)-3-[4-(trifluoromethyl)anilino]pyrazin-2-yl]-4H-1,2,4-oxadiazol-5-one]
[1]
  ΔTm at 7 µM: 5 °C
[2]
  IC50: 499 nM

## O=c1[nH]c(-c2ccccc2Nc2ccc(C(F)(F)F)cc2)no1 [Example 38, 3-[2-[4-(trifluoromethyl)anilino]phenyl]-4H-1,2,4-oxadiazol-5-one]
[1]
  ΔTm at 7 µM: 12.6 °C
[2]
  IC50: 39 nM

## COC(C)(C)CCOc1ccnc(Nc2ccc(C(F)(F)F)cc2)c1-c1noc(=O)[nH]1 [Example 66, 3-[4-(3-methoxy-3-methyl-butoxy)-2-[4-(trifluoromethyl)anilino]-3-pyridyl]-4H-1,2,4-oxadiazol-5-one]
[1]
  ΔTm at 7 µM: 0.4 °C
[2]
  IC50: 1470 nM

## Nc1cc(Nc2nccnc2-c2noc(=O)[nH]2)ccc1C(F)(F)F [Example 33, 3-[3-[3-amino-4-(trifluoromethyl)anilino]pyrazin-2-yl]-4H-1,2,4-oxadiazol-5-one]
[1]
  ΔTm at 7 µM: 3.6 °C
[2]
  IC50: 127 nM

## O=c1[nH]c(-c2c(F)ccnc2Nc2ccc(C(F)(F)F)cc2)no1 [Example 13, 3-[4-fluoro-2-[4-(trifluoromethyl)anilino]-3-pyridyl]-4H-1,2,4-oxadiazol-5-one]
[1]
  ΔTm at 7 µM: 10.3 °C
[2]
  IC50: 95 nM

## O=C(Nc1ccc(Nc2nccnc2-c2noc(=O)[nH]2)cc1)C1CCC1 [Example 27, N-[4-[[3-(5-oxo-4H-1,2,4-oxadiazol-3-yl)pyrazin-2-yl]amino]phenyl]cyclobutanecarboxamide]
[1]
  ΔTm at 7 µM: 0.4 °C
[2]
  IC50: 1540 nM

## O=c1[nH]c(-c2nccnc2Nc2ccc(-c3nccs3)cc2)no1 [Example 18, 3-[3-(4-thiazol-2-ylanilino)pyrazin-2-yl]-4H-1,2,4-oxadiazol-5-one]
[1]
  ΔTm at 7 µM: 2.5 °C
[2]
  IC50: 828 nM

## Nc1cc(C(F)(F)F)ccc1Nc1nccnc1-c1noc(=O)[nH]1 [Example 34, 3-[3-[2-amino-4-(trifluoromethyl)anilino]pyrazin-2-yl]-4H-1,2,4-oxadiazol-5-one]
[1]
  ΔTm at 7 µM: 0.4 °C
[2]
  IC50: 2120 nM

## CNc1cnc(Nc2ccc(C(F)(F)F)cc2)c(-c2noc(=O)[nH]2)c1 [Example 46, 3-[5-(methylamino)-2-[4-(trifluoromethyl)anilino]-3-pyridyl]-4H-1,2,4-oxadiazol-5-one]
[1]
  ΔTm at 7 µM: 7.1 °C
[2]
  IC50: 407 nM

## Nc1cnc(Nc2ccc(C(F)(F)F)cc2)c(-c2noc(=O)[nH]2)c1 [Example 45, 3-[5-amino-2-[4-(trifluoromethyl)anilino]-3-pyridyl]-4H-1,2,4-oxadiazol-5-one]
[1]
  ΔTm at 7 µM: 6 °C
[2]
  IC50: 1350 nM

## O=c1[nH]c(-c2nccnc2Nc2ccc(OCC3CC3)cc2)no1 [Example 14, 3-[3-[4-(cyclopropylmethoxy)anilino]pyrazin-2-yl]-4H-1,2,4-oxadiazol-5-one]
[1]
  ΔTm at 7 µM: 9 °C
[2]
  IC50: 2770 nM

## Nc1cnc(-c2noc(=O)[nH]2)c(Nc2ccc(C(F)(F)F)cc2)n1 [Example 36, 3-[5-amino-3-[4-(trifluoromethyl)anilino]pyrazin-2-yl]-4H-1,2,4-oxadiazol-5-one]
[1]
  ΔTm at 7 µM: 3.5 °C
[2]
  IC50: 149 nM

## NC(=O)COc1ccnc(Nc2ccc(C(F)(F)F)cc2)c1-c1noc(=O)[nH]1 [Example 59, 2-[[3-(5-oxo-4H-1,2,4-oxadiazol-3-yl)-2-[4-(trifluoromethyl)anilino]-4-pyridyl]oxy]acetamide]
[1]
  ΔTm at 7 µM: 6.7 °C
[2]
  IC50: 2750 nM

## O=c1[nH]c(-c2c(OCCF)ccnc2Nc2ccc(C(F)(F)F)cc2)no1 [Example 65, 3-[4-(2-fluoroethoxy)-2-[4-(trifluoromethyl)anilino]-3-pyridyl]-4H-1,2,4-oxadiazol-5-one]
[1]
  ΔTm at 7 µM: 6 °C
[2]
  IC50: 81 nM

## CC(C)Oc1ccnc(Nc2ccc(C(F)(F)F)cc2)c1-c1noc(=O)[nH]1 [Example 52, 3-[4-isopropoxy-2-[4-(trifluoromethyl)anilino]-3-pyridyl]-4H-1,2,4-oxadiazol-5-one]
[1]
  ΔTm at 7 µM: 5.1 °C
[2]
  IC50: 179 nM

## COc1cnc(-c2noc(=O)[nH]2)c(Nc2ccc(C(F)(F)F)cc2)n1 [Example 12, 3-[5-methoxy-3-[4-(trifluoromethyl)anilino]pyrazin-2-yl]-4H-1,2,4-oxadiazol-5-one]
[1]
  ΔTm at 7 µM: 7.5 °C
[2]
  IC50: 44 nM

## Cc1cc(-c2noc(=O)[nH]2)c(Nc2ccc(C(F)(F)F)cc2)nc1C [Example 47, 3-[5,6-dimethyl-2-[4-(trifluoromethyl)anilino]-3-pyridyl]-4H-1,2,4-oxadiazol-5-one]
[1]
  ΔTm at 7 µM: 18 °C
[2]
  IC50: 72 nM

## COc1cc(Nc2nccnc2-c2noc(=O)[nH]2)ccc1C(F)(F)F [Example 22, 3-[3-[3-methoxy-4-(trifluoromethyl)anilino]pyrazin-2-yl]-4H-1,2,4-oxadiazol-5-one]
[1]
  ΔTm at 7 µM: 6.1 °C
[2]
  IC50: 70 nM

## O=c1[nH]c(-c2nccnc2Nc2ccc(C(F)(F)F)c(F)c2)no1 [Example 19, 3-[3-[3-fluoro-4-(trifluoromethyl)anilino]pyrazin-2-yl]-4H-1,2,4-oxadiazol-5-one]
[1]
  ΔTm at 7 µM: 10.1 °C
[2]
  IC50: 131 nM

## O=c1[nH]c(-c2nc3ccccc3nc2Nc2ccc(C(F)(F)F)cc2)no1 [Example 37, 3-[3-[4-(trifluoromethyl)anilino]quinoxalin-2-yl]-4H-1,2,4-oxadiazol-5-one]
[1]
  ΔTm at 7 µM: 12.1 °C
[2]
  IC50: 188 nM

## Cc1cc(C)c(-c2noc(=O)[nH]2)c(Nc2ccc(C(F)(F)F)cc2)n1 [Example 26, 3-[4,6-dimethyl-2-[4-(trifluoromethyl)anilino]-3-pyridyl]-4H-1,2,4-oxadiazol-5-one]
[1]
  ΔTm at 7 µM: 9.2 °C
[2]
  IC50: 433 nM

## O=c1[nH]c(-c2c(OCCc3ccccn3)ccnc2Nc2ccc(C(F)(F)F)cc2)no1 [Example 61, 3-[4-[2-(2-pyridyl)ethoxy]-2-[4-(trifluoromethyl)anilino]-3-pyridyl]-4H-1,2,4-oxadiazol-5-one]
[1]
  ΔTm at 7 µM: 2.9 °C
[2]
  IC50: 147 nM

## O=c1[nH]c(-c2ncccc2Nc2ccc(C(F)(F)F)cc2)no1 [Example 9, 3-[3-[4-(trifluoromethyl)anilino]-2-pyridyl]-4H-1,2,4-oxadiazol-5-one]
[1]
  ΔTm at 7 µM: 9.2 °C
[2]
  IC50: 52 nM

## N#CC1(c2ccc(Nc3nccnc3-c3noc(=O)[nH]3)cc2)CCC1 [Example 42, 1-[4-[[3-(5-oxo-4H-1,2,4-oxadiazol-3-yl)pyrazin-2-yl]amino]phenyl]cyclobutanecarbonitrile]
[1]
  ΔTm at 7 µM: 5.3 °C
[2]
  IC50: 711 nM

## Cc1cnc(Nc2ccc(C(F)(F)F)cc2)c(-c2noc(=O)[nH]2)n1 [Example 32, 3-[6-methyl-3-[4-(trifluoromethyl)anilino]pyrazin-2-yl]-4H-1,2,4-oxadiazol-5-one]
[1]
  ΔTm at 7 µM: 10.2 °C
[2]
  IC50: 28 nM

## CC(C)(C)c1ccc(Nc2nccnc2-c2noc(=O)[nH]2)cc1 [Example 15, 3-[3-(4-tert-butylanilino)pyrazin-2-yl]-4H-1,2,4-oxadiazol-5-one]
[1]
  ΔTm at 7 µM: 11.8 °C
[2]
  IC50: 72 nM

## O=c1[nH]c(-c2c(OCCO)ccnc2Nc2ccc(C(F)(F)F)cc2)no1 [Example 51, 3-[4-(2-hydroxyethoxy)-2-[4-(trifluoromethyl)anilino]-3-pyridyl]-4H-1,2,4-oxadiazol-5-one]
[1]
  ΔTm at 7 µM: 5.1 °C
[2]
  IC50: 135 nM

## O=c1[nH]c(-c2nccnc2Nc2ccc(C3CCC3)cc2)no1 [Example 41, 3-[3-(4-cyclobutylanilino)pyrazin-2-yl]-4H-1,2,4-oxadiazol-5-one]
[1]
  ΔTm at 7 µM: 12.5 °C
[2]
  IC50: 6570 nM

## O=c1[nH]c(-c2nccnc2Nc2ccc(C3(C(F)(F)F)CC3)cc2)no1 [Example 40, 3-[3-[4-[1-(trifluoromethyl)cyclopropyl]anilino]pyrazin-2-yl]-4H-1,2,4-oxadiazol-5-one]
[1]
  ΔTm at 7 µM: 13.4 °C
[2]
  IC50: 109 nM

## CCc1ccc(Nc2nccnc2-c2noc(=O)[nH]2)cc1 [Example 17, 3-[3-(4-ethylanilino)pyrazin-2-yl]-4H-1,2,4-oxadiazol-5-one]
[1]
  ΔTm at 7 µM: 8.7 °C
[2]
  IC50: 708 nM
